The subject of data set [1] is CpxRA. In words: E. coli CpxR β-galactosidase reporter assay for CpxRA activation (reporter strain PAD282). It counts as cell-based, Escherichia coli. Here is the method:
E. coli strain CFT073 and its derivative CFT073ΔcpxA::cat were described previously and maintained on Luria broth (LB) plates at 37°C ([30]). The E. coli PcpxP′-lacZ reporter strain, PAD282, was the gift of Thomas Silhavy (Princeton University, Princeton, NJ, USA) and was maintained on TB plates at 37°C ([31]). HepG2 hepatocellular carcinoma cells were the gift of Andy Yu (Indiana University, Indianapolis, IN) and were grown in RPMI […] medium (Gibco) containing 10% fetal calf serum (HyClone) and 1 mM sodium pyruvate (Sigma) at 37°C with 5% CO2 as described ([31]).
Compounds 1 and 6 were purchased from ChemDiv and Aurum Pharmatech, respectively ([31], [32]). Compound 26 was synthesized and purified by the Duerfeldt laboratory as described ([32]). All compounds were dissolved in DMSO prior to use in this assay. The EC50 values for each compound were determined by measuring the β-galactosidase activity of the reporter strain PAD282 as previously reported ([31]). Briefly, PAD282 was cultured overnight in TB medium with 0.4% glucose and diluted into a 384-well plate, which contained the compounds in concentrations ranging from 0 to 160 μM, and incubated for 5 h at 37°C with no shaking. The All-in-One β-galactosidase reagent (Pierce) was added and the OD420, OD550, and OD600 of the wells were measured by a SpectraMax 384 plate reader. EC50 values were determined from 3 separate experiments done in triplicate using GraphPad Prism software using a nonlinear fit model. In some experiments, EC50 values were determined in the presence and absence of 10% human AB serum (Sigma).

Data set [2] deals with CpxRA. Also noted: method as in PMID 31104993. Particulars: β-galactosidase reporter assay in E. coli; read-out: mean 50% effective concentration (EC50), CpxRA activation; cited from earlier work.
Data set [3] in a line: Toxicity / clinical signs in mice. It counts as in vivo, female CBA/J mice. How it is done:
We tested our initial hit, compound 1 ([31]) (Fig. 1), for toxicity in a murine model using criteria described in Materials and Methods. […] To test compound 1 for efficacy, female CBA/J mice were transurethrally inoculated with ∼1 × 10^8 CFU of UPEC strain CFT073; 12 h later, mice were treated with 100 mg/kg compound 1 (n = 10) or the vehicle control (n = 5) s.c. twice a day for 3 days and then sacrificed 4 h after the last dose. No effect was seen on the recovery of E. coli CFT073 in the urine, bladder, or kidneys (see Fig. S1 in the supplemental material). As compound 1 lacked efficacy, we aimed to improve the scaffold to enhance potency and eliminate the nitro group liability ([32]).
We developed a high-performance liquid chromatography-tandem mass spectrometry (HPLC-MS/MS) assay to measure compound 6 with a lower limit of quantification of 1 ng/mL. Single-dose PK parameters of compound 6 were determined in female CBA/J mice (n = 15) given 100 mg/kg s.c. dissolved in the vehicle. Blood was obtained from groups of 3 mice 1, 2, 4, 8, and 24 h postinjection.
Animal experiments were conducted according to the guidelines of the Indiana University School of Medicine Institutional Animal Care and Use Committee by the IU Simon Comprehensive Cancer Center In Vivo Therapeutics Core, a component of the Indiana Clinical Translational Science Institute. For the pilot toxicity study with compound 1, 4- to 6-week-old CBA/J female mice were obtained from Jackson Laboratory (Bar Harbor, ME) and were treated with compound 1 or the vehicle control twice a day for 3 days as described in the results. […] Toxicity was determined by the following criteria: deteriorating health-hunched posture, lack of grooming, failure to thrive, failure to eat and drink for >48 h, rapid loss of 15 to 20% body weight, inactivity with hunched posture, loss of righting reflex and inability to maintain upright posture, loss of general body condition with spine becoming visible, and dehiscence of wounds and/or evidence of infection at injection sites not responsive to veterinary treatment.

Where [4] appears, read: infected mice, 100 mg/kg s.c. at 12, 36, 60 h.

Several values for one entry are separate records, joined by “and”; a condition that tells them apart may be missing. Equal values may be shown once.

In the case of `NC1CCCc2c1[nH]c1ccc(F)cc21` (centres unmarked) [compound 6], the “effect of 10% human AB serum on activity in the reporter assay” value in the data set with CpxRA [1] (10% human AB serum present vs absent) is on record as “not affected”. Besides, the “fold lower EC50 (more potent) than compound 1” value with CpxRA [1] (reporter assay) was 3.2 fold and 3 fold. The “concentration for peak activation of CpxR” value in the data set with CpxRA [1] (reporter assay, Fig. S2) is 10 µM. Moreover, the EC50 with CpxRA [2] was 7.7 µM. Besides, the “clinical signs during efficacy trial” value in data set [3] (setting [4]) is “None of the compound 6-treated animals exhibited decreased activity, tremors, or squinting”. Moreover, in data set [3] (single dose 100 mg/kg s.c.), the “clinical signs of toxicity at 24 h” value is “No mice showed clinical signs of toxicity”. Besides, the tremors entry in data set [3] (single dose 100 mg/kg s.c., n = 15, one mouse from 30 min (severe at 2 h), six mice after 1 h) is “slight tremors”. Besides, the “clinical signs, all treated mice” value in data set [3] (single dose 100 mg/kg s.c., from 10 min after injection to the 8-h time point) was “slightly decreased activity and squinting”.

In the case of `N[C@@H]1CCCc2c1[nH]c1cc(F)c(F)cc21` [compound 26], the “fold lower EC50 (more potent) than compound 6” value in the data set on CpxRA [1] (reporter assay) is recorded as approximately 7 fold. In addition, in the data set on CpxRA [2], the EC50 was 1.1 µM. In addition, the “signs of toxicity during efficacy trial” value in data set [3] (setting [4]) is “None of the compound 26-treated animals exhibited signs of toxicity”.
